What was measured:
T47D = experiment: Cell growth in soft agar culture (alamarBlue); conditions: Homo sapiens, 168 h, read-out: IC50 (uM) Soft agar
UACC257 = experiment: Cell growth in soft agar culture (alamarBlue); conditions: Homo sapiens, UACC-257, 168 h, read-out: IC50 (uM) Soft agar
SK-OV-3 [1] = experiment: Cell growth in soft agar culture (alamarBlue); conditions: Homo sapiens, SK-OV-3, 168 h, read-out: IC50 (uM) Soft agar
OVCAR-8 [2] = experiment: Cell growth in liquid culture (alamarBlue); conditions: Homo sapiens, OVCAR-8, 72 h, read-out: IC50 (uM) Liquid culture
Pc3M/N = experiment: Cell growth in liquid culture (alamarBlue); conditions: Homo sapiens, PC-3M, 72 h, read-out: IC50 (uM) Liquid culture
HCT116-P53(−) [3] = experiment: Cell growth in soft agar culture (alamarBlue); conditions: 168 h, read-out: IC50 (uM) Soft agar
W138 = experiment: Cell growth in liquid culture (alamarBlue); conditions: W138, 72 h, read-out: IC50 (uM) Liquid culture
MCF7 = experiment: Cell growth in liquid culture (alamarBlue); conditions: Homo sapiens, MCF7, 72 h, read-out: IC50 (uM) Liquid culture
A2780 [4] = experiment: Cell growth in liquid culture (alamarBlue); conditions: Homo sapiens, A2780, 72 h, read-out: IC50 (uM) Liquid culture
Panc-1 = experiment: Cell growth in liquid culture (alamarBlue); conditions: Homo sapiens, PANC-1, 72 h, read-out: IC50 (uM) Liquid culture
OVCAR-8 [5] = experiment: Cell growth in soft agar culture (alamarBlue); conditions: Homo sapiens, OVCAR-8, 168 h, read-out: IC50 (uM) Soft agar
ASPC-1 = experiment: Cell growth in liquid culture (alamarBlue); conditions: Homo sapiens, ASPC1, 72 h, read-out: IC50 (uM) Liquid culture
HS578 = experiment: Cell growth in soft agar culture (alamarBlue); conditions: Hs578, 168 h, read-out: IC50 (uM) Soft agar
DU145 = experiment: Cell growth in liquid culture (alamarBlue); conditions: Homo sapiens, DU-145, 72 h, read-out: IC50 (uM) Liquid culture
UACC62 [6] = experiment: Cell growth in soft agar culture (alamarBlue); conditions: Homo sapiens, UACC-62, 168 h, read-out: IC50 (uM) Soft agar
PC3 = experiment: Cell growth in liquid culture (alamarBlue); conditions: Homo sapiens, PC-3, 72 h, read-out: IC50 (uM) Liquid culture
SW480 = experiment: Cell growth in soft agar culture (alamarBlue); conditions: Homo sapiens, SW480, 168 h, read-out: IC50 (uM) Soft agar
HCT116-P53(−) [7] = experiment: Cell growth in liquid culture (alamarBlue); conditions: 72 h, read-out: IC50 (uM) Liquid culture
OVCAR-4 = experiment: Cell growth in liquid culture (alamarBlue); conditions: Homo sapiens, OVCAR-4, 72 h, read-out: IC50 (uM) Liquid culture
UACC62 [8] = experiment: Cell growth in liquid culture (alamarBlue); conditions: Homo sapiens, UACC-62, 72 h, read-out: IC50 (uM) Liquid culture
A549 = experiment: Cell growth in soft agar culture (alamarBlue); conditions: Homo sapiens, A549, 168 h, read-out: IC50 (uM) Soft agar
HT29 = experiment: Cell growth in liquid culture (alamarBlue); conditions: Homo sapiens, HT-29, 72 h, read-out: IC50 (uM) Liquid culture
Caov-3 = experiment: Cell growth in liquid culture (alamarBlue); conditions: Homo sapiens, Caov-3, 72 h, read-out: IC50 (uM) Liquid culture
HCT116 [9] = experiment: Cell growth in liquid culture (alamarBlue); conditions: Homo sapiens, HCT-116, 72 h, read-out: IC50 (uM) Liquid culture
SK-OV-3 [10] = experiment: Cell growth in liquid culture (alamarBlue); conditions: Homo sapiens, SK-OV-3, 72 h, read-out: IC50 (uM) Liquid culture
DLD1 = experiment: Cell growth in soft agar culture (alamarBlue); conditions: Homo sapiens, DLD-1, 168 h, read-out: IC50 (uM) Soft agar
HCT116 [11] = experiment: Cell growth in soft agar culture (alamarBlue); conditions: Homo sapiens, HCT-116, 168 h, read-out: IC50 (uM) Soft agar
A2780 [12] = experiment: Cell growth in soft agar culture (alamarBlue); conditions: Homo sapiens, A2780, 168 h, read-out: IC50 (uM) Soft agar

In the case of `Cc1cc(/C=C/c2ccc3cc(N(C)C)ccc3[n+]2C)c(C)n1-c1ccccc1` [Example 1, Pyrvinium Phosphate], the IC50 (T47D) was under 0.03 µM, the IC50 (UACC257) was 0.1 to 0.3 µM and the IC50 (SK-OV-3 [1]) was 0.03 to 0.1 µM. It also gave an IC50 (OVCAR-8 [2]) of 0.1 to 0.3 µM, an IC50 (Pc3M/N) of over 1 µM and an IC50 (HCT116-P53(−) [3]) of 0.1 to 0.3 µM. For the same compound, the IC50 (W138) was 0.1 to 0.3 µM, the IC50 (MCF7) was 0.03 to 0.1 µM and the IC50 (A2780 [4]) was 0.03 to 0.1 µM. The IC50 (Panc-1) was 0.3 to 1 µM, the IC50 (OVCAR-8 [5]) was 0.03 to 0.1 µM and the IC50 (ASPC-1) was 0.3 to 1 µM. It also gave an IC50 (HS578) of 0.03 to 0.1 µM, an IC50 (DU145) of over 1 µM and an IC50 (UACC62 [6]) of 0.03 to 0.1 µM. It also gave an IC50 (PC3) of 0.1 to 0.3 µM, an IC50 (SW480) of 0.3 to 1 µM and an IC50 (HCT116-P53(−) [7]) of over 1 µM. For the same compound, the IC50 (OVCAR-4) was 0.1 to 0.3 µM, the IC50 (UACC62 [8]) was 0.1 to 0.3 µM and the IC50 (A549) was 0.033 to 0.1 µM. It also gave an IC50 (HT29) of over 1 µM, an IC50 (Caov-3) of 0.03 to 0.1 µM and an IC50 (HCT116 [9]) of over 1 µM. The IC50 (SK-OV-3 [10]) was 0.1 to 0.3 µM, the IC50 (DLD1) was about 1 µM and the IC50 (HCT116 [11]) was 0.1 to 0.3 µM. For the same compound, the IC50 (A2780 [12]) was 0.03 to 0.1 µM.
